Data as given in patent publication US20210220420A1, “BOTANICAL COMPOSITIONS OF SALVIA O[…] ACTIVITY IN EXTENDING CHR[…] AND METHODS OF USE” (priority 2016, published 2021).

Key:
[1] = system: C. elegans strain with a pharyngeal GFP tag and a bus-5 mutation; test: C. elegans chronological lifespan assay versus small molecule AChE inhibitors (Example 4); format: in vivo; conditions: 10 mg/ml; for maximum improvement in survival: at day 13 (N350), day 12 (N355, N314), day 9 (N354); for improvement in mean life span: vs control
Experimental: The samples were prepared as a DMSO-based 10 mg/ml stock, aliquoted when necessary and a serial dilution of the stock solution was performed for N92-4. The stock solutions were stored at −20° C.
The assay was carried out using the standard C. elegans strain with a pharyngeal GFP tag and a bus-5 mutation. The GFP tag enables images of the worms to be captured using fluorescence microscopy. […] The worms were raised in the presence of a treatment or control on 12 well NGM agar plates, and were maintained at 20° C. with sufficient food (Escherichia coli strain OP-50).
A proprietary data analysis software package was used to analyse the effects of different active ingredients on aspects of worm ageing. The package was developed using a MATLAB image analysis algorithm which was adapted to recognise and count worms based on their fluorescence intensity above background fluorescence. A living worm is distinguished from a dead worm based on the degree of movement between two consecutive images, which enables the number of living and cumulative number of dead worms to be tracked throughout the experiment. […] A selection of images was manually checked to ensure the software had correctly identified the number of worms.
The statistical analysis output of OASIS provides Log-Rank and Fishers Exact Test results. The Log-Rank result is a non-parametric test which compares two survival functions for the overall lifespan assay, providing a reliable p-value summarising the whole experiment. The Fishers Exact Test calculates the significance of survival function comparisons at multiple specific time points throughout the experiment, rather than for the overall lifespan

Yeast = conditions: cited from earlier work

| Compound | Restricted mean lifespan [1] [days] | maximum improvement in lifespan [1] | maximum improvement in survival [1] | improvement in mean life span [1] | effect on lifespan (Yeast) |
| --- | --- | --- | --- | --- | --- |
| CCN(C)C(=O)Oc1cccc([C@H](C)N(C)C)c1 [N355, Rivastigmine] | 14.04 | +15.6% | up to +13.3% | +7.9% | – |
| Oc1ccc(C=Cc2cc(O)cc(O)c2)cc1 [Resveratrol] | – | – | – | – | able to increase lifespan in yeast |
| COc1ccc2c3c1O[C@H]1C[C@@H](O)C=C[C@@]31CCN(C)C2 [N354, Galantamine] | 14.05 | +15.9% | up to +11.6% | +8% | – |
